Tests used:
Type in all cases: functional
P388 [1] = assay: In vivo antitumor activity against mouse P388 cells at 9 mg/kg relative to control
P388 [2] = assay: In vivo antitumor activity against mouse P388 cells at 2 mg/kg relative to control
P388 [3] = assay: In vivo antitumor activity against mouse P388 cells at 4 mg/kg relative to control
P388 [4] = assay: In vivo antitumor activity against mouse P388 cells at 0.5 mg/kg relative to control

## CC(=O)O[C@H]1C(=O)O[C@@H]2C[C@H]3C(C)=CC(=O)[C@@H](O)[C@]3(C)[C@H]3[C@]4(O)OC[C@]32[C@@H]1[C@@H](C)[C@H]4O [HOLACANTHONE]
P388 [1]
  T/C: 159%

## CCC(C)C(=O)O[C@H]1C(=O)O[C@@H]2C[C@H]3C(C)=CC(=O)[C@@H](O)[C@]3(C)[C@H]3[C@]4(O)OC[C@]32[C@@H]1[C@@H](C)[C@H]4O (some centres undefined) [AILANTHINONE]
P388 [2]
  T/C: 148%

## CC1=CC(=O)[C@@H](O)[C@]2(C)[C@H]3[C@]4(O)OC[C@]35[C@H]([C@@H](C)[C@H]4O)[C@@H](OC(=O)CC(C)(C)O)C(=O)O[C@@H]5C[C@@H]12 [SOULARUBINONE]
P388 [3]
  T/C: 137%

## CC[C@](C)(O)C(=O)O[C@H]1C(=O)O[C@@H]2C[C@H]3C(C)=CC(=O)[C@@H](O)[C@]3(C)[C@H]3[C@@]4(O)OC[C@]32[C@@H]1[C@@H](C)[C@H]4O [GLAUCARUBINONE]
P388 [4]
  T/C: 231%

From ChEMBL document CHEMBL1151361, “Soularubinone, a new antileukemic quassionoid from Soulamea tomentosa” (1981)
